# Values quoted from earlier work as cited in patent US5043340A, “Derivatives of 4-desacetyl VLB C-3 carboxhydrazide” (Eli Lilly and Company, priority 1990, dated 1991).
# Legend:
# [1] = tested on: Ridgeway osteogenic sarcoma; details: mouse, in vivo; cited from earlier work
# Gardner lymphosarcoma = details: mouse, in vivo; cited from earlier work
# P 1534(J) leukemia = details: mouse, in vivo; cited from earlier work
# transplanted tumors = details: mouse, in vivo; cited from earlier work
# [2] = in humans, compared with vincristine; cited from earlier work
# [3] = tested on: vincristine-resistant leukemias; details: in humans; cited from earlier work
structure (smiles),measurement,setting,value
CCC1(O)CC2CN(CCc3c([nH]c4ccccc34)C(C(=O)OC)(c3cc4c(cc3OC)N(C)C3C(O)(C(=O)NN)C(O)C5(CC)C=CCN6CCC43C65)C2)C1 (stereo not drawn) [4-desacetyl VLB C-3 carboxhydrazide],activity against Ridgeway osteogenic sarcoma,[1],active
same,activity against Gardner lymphosarcoma,Gardner lymphosarcoma,active
same,activity against P 1534(J) leukemia,P 1534(J) leukemia,active
same,anti-tumor activity,transplanted tumors,active anti-tumor agent against transplanted tumors in mice
"CC[C@]1(O)C[C@@H]2CN(CCc3c([nH]c4ccccc34)[C@@](C(=O)OC)(c3cc4c(cc3OC)N(C)[C@H]3[C@@](O)(C(N)=O)[C@H](O)[C@]5(CC)C=CCN6CC[C@]43[C@@H]65)C2)C1 [vindesine, 4-desacetyl VLB C-3 carboxamide]",neurotoxicity,[2],less neurotoxicity than does vincristine
same,effective against vincristine-resistant leukemias,[3],apparently effective against vincristine-resistant leukemias
